Test results published in patent US5686458A, “Quinazoline deriviates for treating peptic ulcer” (Yuhan Corporation, priority 1992, dated 1997).
Where a name gives a salt, the structure may show the parent alone.

Assays:
[1] = target: T1, Proton Pump (H^+ /K^+ ATPase) (Oryctolagus cuniculus, UniProt P27112); test: Inhibition of Proton Pump (H+/K+ ATPase) Activity, in vitro enzyme reaction (Experiment 1); type: biochemical, New Zealand white rabbit; conditions: for Effect ratio: IC50 of Omeprazole / IC50 of test compound; for IC50: K+-stimulated H+/K+ ATPase activity, rabbit gastric microsomes, pH 7.2, 37° C., 15 min prereaction, 30 min reaction, read-out: IC50 of test compound, inhibition (50%) of the proton pump activity
T1 construct: The microsomes thus obtained were used as an enzyme source of the in vitro enzyme reaction study of proton pump; from tissue; host or cells: rabbit stomach, mucosal scrapings, microsomes (180,000 g pellet)
T1 sequence (P27112 whole entry): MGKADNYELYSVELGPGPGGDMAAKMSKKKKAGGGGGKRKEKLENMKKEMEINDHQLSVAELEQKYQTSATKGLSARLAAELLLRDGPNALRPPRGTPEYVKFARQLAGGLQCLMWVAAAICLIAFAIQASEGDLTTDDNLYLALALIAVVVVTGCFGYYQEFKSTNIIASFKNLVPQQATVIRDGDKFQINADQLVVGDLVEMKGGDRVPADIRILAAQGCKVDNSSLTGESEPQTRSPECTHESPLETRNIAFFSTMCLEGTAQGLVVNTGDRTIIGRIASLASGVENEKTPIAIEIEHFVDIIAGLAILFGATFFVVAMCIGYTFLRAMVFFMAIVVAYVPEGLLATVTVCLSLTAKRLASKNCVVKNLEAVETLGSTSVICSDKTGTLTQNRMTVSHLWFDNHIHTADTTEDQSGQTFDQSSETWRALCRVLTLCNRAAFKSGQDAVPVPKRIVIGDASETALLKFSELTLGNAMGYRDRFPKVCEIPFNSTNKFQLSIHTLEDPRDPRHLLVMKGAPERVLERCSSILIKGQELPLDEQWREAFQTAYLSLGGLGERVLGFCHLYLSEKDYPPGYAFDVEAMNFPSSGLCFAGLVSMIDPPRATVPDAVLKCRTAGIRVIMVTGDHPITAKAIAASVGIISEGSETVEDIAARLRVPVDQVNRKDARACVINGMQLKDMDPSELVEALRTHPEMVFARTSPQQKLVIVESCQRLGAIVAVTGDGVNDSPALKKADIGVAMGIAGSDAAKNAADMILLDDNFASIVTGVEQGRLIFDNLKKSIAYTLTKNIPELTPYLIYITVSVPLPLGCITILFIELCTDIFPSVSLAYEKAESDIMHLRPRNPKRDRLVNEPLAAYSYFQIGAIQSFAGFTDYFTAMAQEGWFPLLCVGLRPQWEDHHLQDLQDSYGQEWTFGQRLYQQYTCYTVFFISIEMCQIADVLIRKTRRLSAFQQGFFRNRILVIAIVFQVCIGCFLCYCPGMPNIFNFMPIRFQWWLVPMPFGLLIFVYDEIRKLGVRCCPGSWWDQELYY
T1 sequence (P18597 whole entry partner): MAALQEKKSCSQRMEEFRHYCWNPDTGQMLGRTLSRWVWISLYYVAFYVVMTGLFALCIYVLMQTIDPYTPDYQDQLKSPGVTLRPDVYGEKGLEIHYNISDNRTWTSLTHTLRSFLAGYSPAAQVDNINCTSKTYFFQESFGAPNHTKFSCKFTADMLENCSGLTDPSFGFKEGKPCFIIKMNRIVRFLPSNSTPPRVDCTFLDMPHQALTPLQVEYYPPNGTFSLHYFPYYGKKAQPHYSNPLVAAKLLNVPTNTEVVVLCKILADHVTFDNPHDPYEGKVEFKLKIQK
Procedure: A New Zealand white rabbit was killed by blowing its head and the stomach was taken out. The contents of the stomach were removed and the stomach walls were washed with was saline. The inner wall of the stomach was scratched out with a slide glass and the cells thus obtained were homogenized in 0.25M sucrose buffer by means of a Teflon-glass homogenizer. The homogenous solution was centrifuged at 10,000 g for 10 minutes and the supernatant was further centrifuged at 20,000 g for 20 minutes. The supernatant thus obtained was centrifuged at an ultra-high speed of 180,000 g for 1 hour. The pellets precipitated were collected by discarding the supernatant and suspended in 50 mM Tris-HCl buffer having pH 7.2. The suspension was dialyzed twice with the same buffer(of 1,000 times volume) for 3 hours and stored into liquid nitrogen.
The above centrifugation and dialysis were carried out at 4° C. The microsomes thus obtained were used as an enzyme source of the in vitro enzyme reaction study of proton pump.
The inhibitory effects of proton pump activity by the compounds of the present invention were measured by the in vitro enzyme reaction study. The proton pump activity stimulated by Mg^++ was used as a negative comparative group, and the activity stimulated by Mg^++ and K^+ was used as a positive comparative group. The comparative compound was omeprazole.
Test tubes were divided into 4 groups: Group 1 as negative comparative group(n=3), Group 2 as positive comparative group(n=3), Group 3(n=5) to be administered with the compound of the present invention and Group 4(n=5) to be administered with the comparative compound. The inhibitory effects of proton pump activity of Groups 3 and 4 were measured by employing the compound prepared in Example 34 and omeprazole, respectively, each of which was dissolved in dimethylsulfoxide at 5 different concentrations.
To each of Groups 1, 2, 3 and 4, were added 0.1 ml of magnesium chloride(40 mM) dissolved in 50 mM Tris-HCl buffer (pH 7.2) and […] of the enzyme source prepared in Experiment 1-1. Then, 0.1 ml of potassium chloride(500 mM) and 0.1 ml of ammonium chloride(100 mM) dissolved in 50 mM Tris-HCl buffer(pH 7.2) were added to all groups except for Group 1.
0.1 ml of dimethylsulfoxide was added to each of Groups 1 and 2; and to Group 3 was added 0.01 ml of the solution in which the compound prepared in Example 34 was dissolved in dimethylsulfoxide at 5 different concentrations. To Group 4, 0.01 ml of the solution prepared by dissolving omprazole in dimethylsulfoxide at 5 different concentrations(37.6, 21.4, 12.2, 7.0 and 4.0 μM) was added. 50 mM Tris-HCl buffer was added thereto so as to make the total volume 0.4 ml.
Thereafter, the test tubes of each Group were placed at 37° C. for 15 minutes for the prereaction. 0.1 ml of ATP solution(33.3 mM), which was prepared by adding Tris-ATP 50 mM to Tris-HCl buffer having pH 7.2, was added until the reaction volume became 0.5 ml. The final concentrations of MgCl2, KCl, NH4 Cl, ATP, enzyme and Tris-HCl were 8 mM, 100 mM, 20 mM, 6.7 mM, 100μg/ml and 50 mM, respectively. After the reaction was carried out at 37° C. for 30 minutes, 25% cold trichloroacetic acid was added to terminate the enzyme reaction. The released inorganic phosphate was measured by an automatic analyzer(SBA 300, Gilford).
The difference between Group 1 and Group 2 represents the proton pump activity activated by K^+ only. The inhibition percentages of Groups 3 and 4 were calculated from Litchfield-wilcoxon equation[see J. Pharmacol. Exptl. Ther. 96, 99(1949)]. The concentrations of the test compounds which inhibit 50% of the proton pump activity are represented as IC50 in Table 1.

gastric secretion = test: Inhibition of Gastric Secretion, pylorus-ligated rats (Experiment 2); type: in vivo, Sprague-Dawley rats; conditions: relative to omeprazole (equation III), 20 mg/kg intraduodenally, pylorus-ligated rats, 5 hours
Procedure: In accordance with the method disclosed in Shay, H., et al., Gastroenterology 5, 43-61(1945), Experiment 2 was carried out.
Sprague-Dawley rats having a body weight of 170±10 g were divided into 3 groups(n=5) and deprived of food for 24 hours before the experiment with free access to water. Under ether anesthesia, the abdomen was incised, and the pylorus was ligated. As a comparative group, Group 1 was administered intraduodenally in a volume of 0.5 ml/200 g of 30% aqueous polyethylene glycol 400 solution. Groups 2 and 3 were administered intraduodenally with the compound of Example 34 and omeprazole, respectively, each of which was suspended in 30% aqueous polyethylene glycol 400 solution at a concentration of 20 mg/kg. After closing the abdominal cavity, the rats were placed for 5 hours and then killed by cervical dislocation. The stomach was extracted to obtain gastric juice.
The gastric juice was centrifuged at 1,000 g to remove precipitates. The amount and acidity of the gastric juice were measured. Relative volumes, relative acid concentrations and relative acid outputs of the test compounds were calculated from equations(I), (II) and (III) and the results are shown in Table 2.
(I) = the average amount of gastric juice of Group 1 - the
average amount of gastric juice of Group 2)/(the average
amount of gastric juice of Group 1 - the average amount
of gastric juice of Group 3)
Relative acid concentration
(II) = (the average acidity of Group 1 - the average
acidity of Group 2)/(the average acidity of Group 1 - the average
(III) = (the total amount of acid output of Group 1 - the
total amount of acid output of Group 2)/(the total amount of acid
output of Group 1 - the total amount of acid output of Group

Effect ratio [1]	IC50 [1]	Structure (SMILES)	Relative Acid Output (gastric secretion)
1.26	7.5 µM	COc1cccc2c(N3CCc4cccc(C)c4C3C)nc(Nc3ccc(F)cc3)nc12.Cl (stereo not drawn) [Example 52, 2-(4-Fluorophenylamino)-8-Methoxy-4-(1,8-Dimethyl-1,2,3,4-Tetrahydroisoquinoline-2-Yl)Quinazoline Hydrochloride]	0.79
~ 0.25	~25 µM	COc1cccc2c(N3Cc4ccccc4CC3C)nc(Nc3ccc(F)cc3)nc12.Cl (stereo not drawn) [Example 48, 2-(4-Fluorophenylamino)-8-Methoxy-4-(3-Methyl-1,2,3,4-Tetrahydroisoquinoline-2-Yl) Quinazoline Hydrochloride]	0.76
~ 0.80	~10 µM	COc1cccc2c(N3CCc4cc(C)ccc4C3C)nc(Nc3ccc(F)cc3C)nc12.Cl (stereo not drawn) [Example 55, 2-(4-Fluoro-2-Methylphenyl-Amino)-8-Methoxy-4-(1,6-Dimethyl-1,2,3,4-Tetrahydroisoquinoline-2-Yl)Quinazoline Hydrochloride]	0.50
1.97	2.9 µM	Cc1cc(F)ccc1Nc1nc(N2CCc3cccc4c3C2CC4)c2ccccc2n1.Cl (stereo not drawn) [Example 27, 2-(4-Fluoro-2-Methylphenyl-Amino)-4-(1,8-Ethano-1,2,3,4-Tetrahydroisoquinoline-2-Yl) Quinazoline Hydrochloride]	0.30
8.15	1.3 µM	COc1cccc2c(N3CCc4ccccc4C3C)nc(N(C)c3ccccc3)nc12.Cl (stereo not drawn) [Example 40, 8-Methoxy-2-(N-Methylphenyl-Amino)-4-(1-Methyl-1,2,3,4-Tetrahydroisoquinoline-2-Yl) Quinazoline Hydrochloride]	0.82
< 0.18	12.5 µM	COc1cccc2c(N3CCc4ccccc4C3C(F)(F)F)nc(Nc3ccc(F)cc3C)nc12.Cl (stereo not drawn) [Example 42, 2-(4-Fluoro-2-Methylphenyl-Amino)-8-Methoxy-4-(1-Trifluoromethyl-1,2,3,4-Tetrahydroisoquinoline-2-Yl)Quinazoline Hydrochloride]	0.42
1.04	7.18 µM	COc1cccc2c(N3CC(C)c4ccccc4C3C)nc(Nc3ccc(F)cc3C)nc12.Cl (stereo not drawn) [Example 57, 2-(4-fluoro-2-Methylphenyl-Amino)-8-Methoxy-4-(1,4-Dimethyl-1,2,3,4-Tetrahydroisoquinoline-2-Yl) Quinazoline Hydrochloride]	0.67
1.83	5.2 µM	CN(c1ccccc1)c1nc(N2CCc3ccccc3C2)c2ccccc2n1 [Example 19, 2-(N-Methylphenylamino)-4-(1,2,3,4-Tetrahydroisoquinoline-2-Yl)QuinazolineHydrochloride]	0.68
6.92	1.2 µM	COc1cccc2c(N3CCc4ccccc4C3)nc(Nc3ccccc3)nc12.Cl [Example 28, 8-Methoxy-2-(phenylamino)-4-(1,2,3,4-Tetrahydroisoquinoline-2-Yl)Quinazoline Hydrochloride]	0.64
~ 0.97	~12.5 µM	COc1cccc2c(N3CCc4ccccc4C3CF)nc(Nc3ccc(F)cc3C)nc12.Cl (stereo not drawn) [Example 44, 2-(4-Fluoro-2-Methylphenyl-Amino)-8-Methoxy-4-(1-Fluoromethyl-1,2,3,4-Tetrahydroisoquinoline-2-Yl)Quinazoline Hydrochloride]	0.75
11.29	0.7 µM	Cc1cc(F)ccc1Nc1nc(N2CCc3ccccc3C2)c2ccccc2n1.Cl [Example 22, 2-(4-Fluoro-2-Methylphenyl -Amino)-4-(1,2,3,4-Tetrahydroisoquinoline-2-Yl)Quinazoline Hydrochloride]	0.64
46.00	0.4 µM	Cc1cc(F)ccc1Nc1nc(N2CCc3ccccc3C2C)c2ccccc2n1.Cl (stereo not drawn) [Example 26, 2-(4-Fluoro-2-Methylphenyl-Amino)-4-(1-Methyl-1,2,3,4-Tetrahydroisoquinoline-2-Yl) Quinazoline Hydrochloride]	0.25
4.75	2 µM	COc1cccc2c(N3CCc4cccc(C)c4C3C)nc(Nc3ccc(F)cc3C)nc12.Cl (stereo not drawn) [Example 53, 2-(4-Fluoro-2-Methylphenyl-Amino)-8-Methoxy-4-(1,8-dimethyl-1,2,3,4-Tetrahydroisoquinoline-2-Yl)Quinazoline Hydrochloride]	0.92
5.20	1.8 µM	COc1cccc2c(N3CCc4ccccc4C3C)nc(Nc3ccc(F)cc3C)nc12.CS(=O)(=O)O (stereo not drawn) [Example 60, 2-(4-Fluoro-2-MethylPhenyl-Amino)-8-Methoxy-4-(1-Methyl-1,2,3,4-Tetrahydroisoquinoline-2-Yl)Quinazoline Methanesulfonate]	0.84
6.17	1.2 µM	Cc1ccccc1Nc1nc(N2CCc3ccccc3C2)c2ccccc2n1 [Example 21, 2-(2-Methylphenylamino)-4-(1,2,3,4-Tetrahydroisoquinoline-2-Yl)QuinazolineHydrochloride]	0.38
2.00	3.8 µM	COc1cccc2c(N3CCc4ccccc4C3C)nc(N(C)c3ccc(F)cc3)nc12.Cl (stereo not drawn) [Example 41, 8-Methoxy-2-(4-Fluoro-N-methyl-Phenylamino)-4-(1-Methyl-1,2,3,4-Tetrahydroisoquinoline-2-Yl)Quinazoline Hydrochloride]	0.48
1.21	6.12 µM	COc1cccc2c(N3CCc4ccccc4C3(C)C)nc(Nc3ccc(F)cc3C)nc12 [Example 51, 2-(4-Fluoro-2-Methylphenyl-1-Amino)-8-Methoxy-4-(1,1-Dimethyl-1,2,3,4-Tetrahydroisoquinoline-2-Yl)Quinazoline Hydrochloride]	0.82
